Patent US5736548A, “6-aryl pyrazolo[3,4-D] pyrimidin-4-ones and compositions and method of use thereof” (Sanofi, priority 1997, dated 1998)
Several values for one entry are separate records, joined by “and”; a condition that tells them apart may be missing. Equal entries are not always repeated. Structures can show the parent of a compound that is named as a salt.

Target: cGMP-PDE V (Homo sapiens, UniProt O76074)
Assay: biochemical
Parameters: species or system various animal species and man
Details: for IC50: values separated by / and marked * are separate experimental runs; for inhibition at 1 µM / inhibition at 0.01 µM / inhibition at 0.1 µM / inhibition at 10 µM: read-out: Percent Inhibition cGMP-PDE V
Experimental: The cGMP-PDE and other PDE isozymes were isolated from cardiovascular tissues (heart and aorta) of various animal species and man by anion-exchange and affinity chromatography as described by Silver et al., Sec. Messeng. Phos. 13:13-25, 1991; PDE activity, in the presence and absence of test compounds was determined essentially as described by Thompson et al., Adv. Cyclic Nucleotide Res. 10:69-92. To determine the potency and selectivity of compounds as PDE inhibitors, compounds are screened for their effect on cyclic nucleotide hydrolysis at 10 μM. […] The IC50 values are calculated from concentration-response curves as described by Tallarida and Murray, Manual of Pharmacologic Calculations with Computer Programs, Procedure 8, Graded Dose-response, pp. 14-19, Springer-Verlag, New York, 1981.

inhibition at 1 µM | inhibition at 0.1 µM | SMILES | also measured
 |  | CCOc1cc(Cl)ccc1-c1nc2n(C3CCCC3)[nH]c(CC)c-2c(=O)n1 [29 (b), 1-cyclopentyl-3-ethyl-6-(4-chloro-2-ethoxyphenyl)pyrazolo[3,4-d]pyrimidin-4-one] | IC50: 0.0074 µM and 0.0084 µM
28% |  | CCc1[nH]n(C2CCCC2)c2nc(-c3ccccc3OCCCN3CCOCC3)nc(=O)c1-2 [26 (c), 1-cyclopentyl-3-ethyl-6-[2-[3-(4-morpholinyl)propoxy]phenyl]pyrazolo[3,4-d]pyrimidin-4-one] | 
 | 56% | CCc1[nH]n(C2CCCC2)c2nc(-c3ccccc3OCCOC)nc(=O)c1-2 [34 (b), 1-cyclopentyl-3-ethyl-6-[2-[2-(methoxy)ethoxy]phenyl]pyrazolo[3,4-d]pyrimidin-4-one] | inhibition at 0.01 µM: 28%
 |  | CCc1[nH]n(C2CCCC2)c2nc(-c3ccccc3C(F)(F)F)nc(=O)c1-2 [Example 15, 1-cyclopentyl-3-ethyl-6-(2-trifluoromethylphenyl)-pyrazolo[3,4-d]pyrimidin-4-one] | IC50: 0.5 µM
19% |  | CCc1nn(C2CCCC2)c2nc(-c3ccccc3OCC(=O)O)[nH]c(=O)c12 [Example 16, 1-cyclopentyl-3-ethyl-6-[2-(carboxymethoxy)phenyl]pyrazolo[3,4-d]pyrimidin-4-one 1/2 hydrate] | inhibition at 10 µM: 68%
53% | 9% | CCc1[nH]n(C2CCCC2)c2nc(-c3ccc(Cl)cc3O)nc(=O)c1-2 [Example 30, 1-cyclopentyl-3-ethyl-6-(4-chloro-2-hydroxyphenyl)pyrazolo[3,4-d]pyrimidin-4-one] | 
20% |  | CCc1[nH]n(C2CCCC2)c2nc(-c3ccccc3O)nc(=O)c1-2 [Example 7, 1-cyclopentyl-3-ethyl-6-(2-hydroxyphenyl)pyrazolo[3,4-d]pyrimidin-4-one] | inhibition at 10 µM: 51%
 | 63% | CCc1[nH]n(C2CCCC2)c2nc(-c3cc(OCCN4CCOCC4)cc(OCCN4CCOCC4)c3)nc(=O)c1-2 [38 (b), 1-cyclopentyl-3-ethyl-6-[3,5-di[2-(4-morpholinyl)ethoxy]phenyl]pyrazolo[3,4-d]pyrimidin-4-one] | inhibition at 0.01 µM: 11%
 |  | CCc1[nH]n(C2CCCC2)c2nc(-c3ccc(OCCN4CCOCC4)cc3)nc(=O)c1-2 [18 (b), 1-cyclopentyl-3-ethyl-6-[4-[2-(4-morpholinyl)ethoxy]phenyl]pyrazolo[3,4-d]pyrimidin-4-one] | IC50: 0.37 µM
15% |  | CCc1[nH]n(C2CCCC2)c2nc(-c3ccc(OCCCN(C)C)cc3)nc(=O)c1-2 [Example 10, 1-cyclopentyl-3-ethyl-6-[4-[3-(dimethylamino)propoxy]phenyl]pyrazolo[3,4-d]pyrimidin-4-one] | inhibition at 10 µM: 85%
61% | 31% | CCc1nn(C2CCCC2)c2nc(-c3ccc(N)cc3)[nH]c(=O)c12 [Example 31, 1-cyclopentyl-3-ethyl-6-(4-aminophenyl)pyrazolo[3,4-d]pyrimidin-4-one hydrochloride 1/3 hydrate] | 
73% | 21% | CCc1[nH]n(C2CCCC2)c2nc(-c3ccccc3-n3ccnc3)nc(=O)c1-2 [27 (c), 1-cyclopentyl-3-ethyl-6-[2-(1-imidazolyl)phenyl]pyrazolo[3,4-d]pyrimidin-4-one] | 
73% | 31% | CCOc1cc(N(CC)CC)ccc1-c1nc2n(C3CCCC3)[nH]c(CC)c-2c(=O)n1 [37 (b), 1-cyclopentyl-3-ethyl-6-[2-ethoxy-4-(diethylamino)phenyl]pyrazolo[3,4-d]pyrimidin-4-one] | 

SMILES | inhibition at 1 µM | inhibition at 0.1 µM | also measured
CCc1nn(C2CCCC2)c2nc(-c3ccc(-n4ccnc4)cc3)[nH]c(=O)c12 [8 (b), 1-cyclopentyl-3-ethyl-6-[4-(1-imidazolyl)phenyl]pyrazole[3,4-d]pyrimidin-4-one] | 70% | 32% | 
